Test results from US20150072967A1, “TAUROURSODEOXYCHOLIC ACID ATTENTUATES OR ABOLISHES FORMATION AND DEPOSITION OF AMYLOID-B PEPTIDE” (Metselex, Inc., priority 2012, published 2015).

How the values were obtained:
APP/PS1 mice [1] = assay: Iba-I immunostaining (activated microglia); type: in vivo, mouse
Procedure: (§1) Transgenic mice and TUDCA treatment. APP/PS1 double-transgenic mice express human APP containing the KM670/671NL Swedish double mutation and human PS 1 carrying the L166P mutation under the control of a neuron-specific murine Thy-1 minigene promoter. The two transgenes cosegregate in these mice. APP/PS1 mice were maintained on a C57BL/6J genetic background and genotyped by PCR analysis of genomic DNA from tail biopsies. All animals were kept in standard animal cages under conventional laboratory conditions (12 h light/dark cycle, 22° C.), with ad libitum access to food and water. The animals were randomized for therapy trials and coded, and the operators remained double blinded to which treatment they received, until the completion of data collection. Male APP/PS1 transgenic mice and wild-type littermates were randomly assigned into four groups: TUDCA-treated and untreated (control) APP/PS1 mice and TUDCA-treated and untreated (control) wild-type mice. […]
(§2) Image analysis and semiquantification of immunofluorescence. Images were acquired with an Axioskop fluorescence microscope (Carl Zeiss GmbH, Hamburg, Germany). Semiquantitative analysis of mean fluorescence intensities (MFIs) of GFAP, Iba-I, and MAP2 were performed using NIH Image J software. […]

APP/PS1 mice [2] = assay: Sandwich ELISA of Aβ1-40 and Aβ1-42 in brain extracts; type: in vivo, mouse; conditions: hippocampus and frontal cortex of APP/PS1 mice; p<0.01
Procedure: as §1
Sandwich ELISA. […] Total Aβ1-40 or Aβ1-42 content was measured by sandwich ELISA (Millipore) according to the manufacturer's instructions. Values were normalized to the respective total protein concentration and expressed as % of wild-type control.

APP/PS1 mice [3] = assay: Thioflavin T staining of amyloid plaque burden in brain sections; type: in vivo, mouse
Procedure: Transgenic mice and TUDCA treatment. APP/PS1 double-transgenic mice express human APP containing the KM670/671NL Swedish double mutation and human PS 1 carrying the L166P mutation under the control of a neuron-specific murine Thy-1 minigene promoter. The two transgenes cosegregate in these mice. APP/PS1 mice were maintained on a C57BL/6J genetic background and genotyped by PCR analysis of genomic DNA from tail biopsies. All animals were kept in standard animal cages under conventional laboratory conditions (12 h light/dark cycle, 22° C.), with ad libitum access to food and water. […]
Image analysis and semiquantification of immunofluorescence. Images were acquired with an Axioskop fluorescence microscope (Carl Zeiss GmbH, Hamburg, Germany). Semiquantitative analysis of mean fluorescence intensities (MFIs) of GFAP, Iba-I, and MAP2 were performed using NIH Image J software. […] An intensity threshold was set and kept constant for all images analyzed. MFI per square millimeter area was calculated by dividing the MFI units by the area of outlined regions and is presented as a bar graph. The total number of thioflavin- and Aβ-positive plaques in the hippocampus and frontal cortex was counted and presented as plaque number per square millimeter.

APP/PS1 mice [4] = assay: GFAP immunofluorescence (activated astrocytes); type: in vivo, mouse; conditions: hippocampus and frontal cortex; TUDCA-treated APP/PS1 mice; p<0.05
Procedure: as §1
(§3) Image analysis and semiquantification of immunofluorescence. Images were acquired with an Axioskop fluorescence microscope (Carl Zeiss GmbH, Hamburg, Germany). Semiquantitative analysis of mean fluorescence intensities (MFIs) of GFAP, Iba-I, and MAP2 were performed using NIH Image J software. […] An intensity threshold was set and kept constant for all images analyzed. […]

hepatocytes = conditions: DNA microarray; cited from earlier work
APP/PS1 mice [5] = assay: Recognition, spatial and contextual fear memory; type: in vivo, mouse; conditions: transgenic mice vs control transgenic mice
Procedure: Transgenic mice and TUDCA treatment. APP/PS1 double-transgenic mice express human APP containing the KM670/671NL Swedish double mutation and human PS 1 carrying the L166P mutation under the control of a neuron-specific murine Thy-1 minigene promoter. The two transgenes cosegregate in these mice. APP/PS1 mice were maintained on a C57BL/6J genetic background and genotyped by PCR analysis of genomic DNA from tail biopsies. All animals were kept in standard animal cages under conventional laboratory conditions (12 h light/dark cycle, 22° C.), with ad libitum access to food and water. The animals were randomized for therapy trials and coded, and the operators remained double blinded to which treatment they received, until the completion of data collection. Male APP/PS1 transgenic mice and wild-type littermates were randomly assigned into four groups: TUDCA-treated and untreated (control) APP/PS1 mice and TUDCA-treated and untreated (control) wild-type mice. Animals were fed a diet of standard laboratory chow supplemented with either 0.4% (wt/wt) TUDCA (sodium salt; Prodotti Chimici e Alimentari S.p.A., Basaluzzo, Italy), or no bile acid, custom made by Harlan (Harlan Laboratories Models, S.L., Barcelona, Spain). Treatment was started when the mice were 2 months old and continued for 6 months. […]

[6] = system: CTGF, A2M, APOE, SORLA expression; assay: Real-time PCR of lipid-metabolism mediators in brain; type: in vivo, mouse
Procedure: (§4) Transgenic mice and TUDCA treatment. APP/PS1 double-transgenic mice express human APP containing the KM670/671NL Swedish double mutation and human PS 1 carrying the L166P mutation under the control of a neuron-specific murine Thy-1 minigene promoter. The two transgenes cosegregate in these mice. APP/PS1 mice were maintained on a C57BL/6J genetic background and genotyped by PCR analysis of genomic DNA from tail biopsies. All animals were kept in standard animal cages under conventional laboratory conditions (12 h light/dark cycle, 22° C.), with ad libitum access to food and water. The animals were randomized for therapy trials and coded, and the operators remained double blinded to which treatment they received, until the completion of data collection. Male APP/PS1 transgenic mice and wild-type littermates were randomly assigned into four groups: TUDCA-treated and untreated (control) APP/PS1 mice and TUDCA-treated and untreated (control) wild-type mice. Animals were fed a diet of standard laboratory chow supplemented with either 0.4% (wt/wt) TUDCA (sodium salt; Prodotti Chimici e Alimentari S.p.A., Basaluzzo, Italy), or no bile acid, custom made by Harlan (Harlan Laboratories Models, S.L., Barcelona, Spain). Treatment was started when the mice were 2 months old and continued for 6 months. The dose and duration of TUDCA, whose pharmacokinetics has been extensively studied in rodents, were chosen based on pilot studies using APP/PS1 mice and other animal studies.
Real-time PCR. Total RNA from dissected hippocampus and frontal cortex was isolated with TRIzol (Invitrogen), according to the manufacturer's instructions. Samples were homogenized in TRIzol using a motor-driven Bio-vortexer (No 1083; Biospec Products, Bartlesfield, Okla.) and disposable RNAse/DNAse free sterile pestles (Thermo Scientific). […] Real-time quantitative PCR analysis was performed in the 7300 Real-Time PCR System (Applied Biosystems, Foster City, Calif., USA), using SYBR Green PCR master mix (Fermentas International Inc., Glen Burnie, Md., USA). Triplicate reactions were run per sample. The expression levels relative to GAPDH were calculated using the ΔΔCt method. TUDCA-untreated wild-type mice were used as the calibrator. The n-fold change in expression was obtained using the formula: 2^−ΔΔCt.

γ-secretase = γ-secretase activity / APP processing by immunoblot of APP-CTFs and total Aβ; type: in vivo, mouse; conditions: brain tissue
Procedure: as §4
γ-secretase activity. Assessment of γ-secretase activity was performed by detection of the ˜7 KDa carboxyl terminal fragment (CTF)-γ cleavage product of APP. Briefly, 60 μg of total protein extracts were resolved electrophoretically in 10-20% Tris-Tricine gels (BioRad), and CTF-γ (and CTF-β) identified using an anti-APP, C-terminal rabbit polyclonal antibody (Sigma-Aldrich; 1:2000). After stripping, membranes were incubated with the primary mouse monoclonal antibody reactive to Aβ (6E10; Signet; 1:1000) to detect total Aβ peptide. Immunoreactivities were visualized as described above.

APP/PS1 mice [7] = assay: MAP2 immunoreactivity (neuronal integrity); type: in vivo, mouse
Procedure: as §1, §2

APP/PS1 mice [8] = assay: Aβ immunohistochemistry (6E10), Aβ plaque number in brain; type: in vivo, mouse; conditions: TUDCA-treated APP/PS1 mice vs untreated transgenic mice
Procedure: as §1, §3

[9] = cited from earlier work
[10] = APP/PS1 mice hippocampus, p<0.05
[11] = TUDCA-treated APP/PS1 mice vs control transgenic mice

For `C[C@H](CCC(=O)NCCS(=O)(=O)O)[C@H]1CC[C@H]2[C@@H]3[C@@H](O)C[C@@H]4C[C@H](O)CC[C@]4(C)[C@H]3CC[C@]12C` [TUDCA, tauroursodeoxycholic acid], the Iba-I immunoreactivity (APP/PS1 mice [1]; TUDCA-treated APP/PS1 mice relative to control APP/PS1 mice, p<0.05) was “significantly less”, the “reactive microglia around amyloid plaques (Iba-I/thioflavin double-staining)” value (APP/PS1 mice [1]; brains of TUDCA-treated APP/PS1 mice vs control APP/PS1 mice) was “fewer reactive microglia” and the Aβ1-40 levels (APP/PS1 mice [2]) was “significantly decreased”. The Aβ1-42 levels (APP/PS1 mice [2]) was “significantly decreased”, the “amyloid deposits (thioflavin staining)” value (APP/PS1 mice [3]; TUDCA-treated wild-type mice) was “absent” and the thioflavin plaque number (APP/PS1 mice [3]; hippocampus and frontal cortex, APP/PS1 mice fed 0.4% (wt/wt) TUDCA for 6 months vs control transgenic mice, p<0.01) was “marked reduction”. The GFAP immunoreactivity (APP/PS1 mice [4]) was “decreased”, the “downregulation of A2M expression” value (hepatocytes) was “greater than 10 fold” and the “downregulation of CTGF expression” value (hepatocytes) was “greater than 10 fold”. For the same compound, the “recognition, and spatial and contextual fear memory” value (APP/PS1 mice [5]) was “improved”, the “A2M expression (mRNA)” value ([6]; APP/PS1 mice frontal cortex) was “trend for decreased” and the “APOE expression (mRNA)” value ([6]; APP/PS1 mice frontal cortex) was “trend for decreased”. For the same compound, the “CTGF expression (mRNA)” value ([6]; APP/PS1 mice frontal cortex, p<0.05) was “significantly decreased”, the “SORLA expression (mRNA)” value ([6]; APP/PS1 mice hippocampus) was “slightly increasing” and the “A2M expression (mRNA)” value [6, 10] was “significantly decreased”. For the same compound, the “APOE expression (mRNA)” value [6, 10] was “significantly decreased”, the “CTGF expression (mRNA)” value [6, 10] was “significantly decreased” and the CTF-β levels (γ-secretase; TUDCA-fed transgenic mice vs control transgenic mice) was “decreased”. For the same compound, the “total Aβ levels” value (γ-secretase; TUDCA-treated APP/PS1 mice vs control APP/PS1 mice) was “decreased”, the “full-length APP levels” value (γ-secretase; [11]) was “remained unchanged” and the “production of CTF-γ” value (γ-secretase; [11]) was “decrease”. The “integrity of the neuronal fibers around amyloid plaques (MAP2/amyloid double staining)” value (APP/PS1 mice [7]; brains of TUDCA-treated APP/PS1 mice) was “significant improvement”, the MAP2 immunoreactivity (APP/PS1 mice [7]; hippocampus and frontal cortex of APP/PS1 mice, p<0.05) was “prevented the loss” and the “decrease of Aβ plaque number” value (APP/PS1 mice [8]; frontal cortex, p<0.05) was 40%. The “decrease of Aβ plaque number” value (APP/PS1 mice [8]; hippocampus, p<0.01) was roughly 65% and the oral bioavailability [9] was “orally bioavailable”.
